“And” between values parts separate entries of the source, which are not always exact repeats. Equal values may be shown once.
Columns and labels:
ZR-75-1 breast tumors = test: Growth and response category of human ZR-75-1 breast tumors in OVX nude mice, 7 antiestrogens, 161 days (Example 8); type: in vivo; conditions: 161 days
Procedure: The mice (5 per cage) were housed in vinyl cages equipped with air filter lids, which were kept in laminar airflow hoods and maintained under pathogen-limiting conditions. The photoperiod was 12 hours of light and 12 hours of darkness (lights on at 07:15). Cages, bedding and food (Agway Pro-Lab R-M-H Diet #4018) were autoclaved before use. Water was autoclaved and provided ad libitum. Bilateral ovariectomy was performed under isoflurane-induced anesthesia. […] Randomization and treatments were started one week later. […] The 17 groups included two control groups (OVX and OVX+Estrone), seven groups supplemented with an estrone implant and treated with an antiestrogen and eight other groups that received an antiestrogen alone. The estrone implants were then removed from the animals in the ovariectomized control group (OVX) and in groups that were to receive the antiestrogen alone. […] Tamoxifen was purchased from […], Israel) while toremifene citrate was purchased from Orion (Espoo, Finland). […] Animals in both control groups received 0.2 ml of the vehicle alone. The antiestrogen suspensions at the appropriate concentration were prepared each month, stored at 4° C. and used under constant agitation. Powder stock were hermetically stored at 4° C. […] Tumor response was assessed at the end of the study or at death of each animal, if it occurred during the course of the experiment. In this case, only data of mice that survived for at least half of the study (84 days) were used in the tumor response analysis.

[1] = system: breast and endometrial tissues; test: Antiestrogens tested for SERM function and estrogenic activity in breast and endometrium; conditions: for Estrogenic activity in breast and endometrial tissues: physiological or pharmacological concentrations
Source text: As used herein, a selective estrogen receptor modulator (SERM) is a compound that either directly or through its active metabolite functions as an estrogen receptor antagonist (“antiestrogen”) in breast tissue, yet provides estrogenic or estrogen-like effect on bone tissue and on serum cholesterol levels (i.e. by reducing serum cholesterol). Non-steroidal compounds that function as estrogen receptor antagonists in vitro or in human or rat breast tissue (especially if the compound acts as an antiestrogen on human breast cancer cells) is likely to function as a SERM. Conversely, steroidal antiestrogens tend not to function as SERMs because they tend not to display any beneficial effect on serum cholesterol. […] These SERMs may be called “pure SERMs”. […] This second series of SERMs may be called “mixed SERMs”. The unwanted estrogenic activities of these “mixed SERMs”, may be inhibited by addition of pure “SERMs” as shown in FIGS. 6 and 7 in in vitro tests and in FIG. 9 in an in vivo test of breast cancer.

[2] = system: ZR-75-1 breast tumor xenografts; test: Growth of human ZR-75-1 breast tumor xenografts in OVX nude mice supplemented with estrone (DHEA, EM-800; Example 1); conditions: OVX + E1 (0.5 μg) alone, 9.5 months
[3] = Tissue distribution of radioactivity after a single oral dose of ^14C-EM-800; type: in vivo, female Long-Evans rats; conditions: for Drug-derived radioactivity, brain / Drug-derived radioactivity, blood / Drug-derived radioactivity, plasma: 20 mg/kg
Source text: It is important to note that some of the radioactivity detected in the brain tissue may be due to residual blood in the tissue. Additionally, the radiochemical purity of the ^14C-EM-800 used for this study was minimally 96.25%.

[4] = 200 μg daily, absence of estrone

CC/C(=C(\c1ccccc1)c1ccc(OCCN(C)C)cc1)c1ccccc1 [Tamoxifen, (Z)-2-[4-(1,2-diphenyl-1-butenyl)phenoxy]-N,N-dimethylethanamine]
Progressing tumors (ZR-75-1 breast tumors; 50 μg daily + estrone): 65%
Progressing tumors (ZR-75-1 breast tumors; [4]): 62%
Function as SERM [1]: found to function as SERMs
Estrogenic activity in breast and endometrial tissues [1]: have some estrogenic activities

C[C@]12CC[C@@H]3c4ccc(O)cc4CC[C@H]3[C@@H]1CCC2=O [E1, Estrone, reference compound]
Category of response: Complete [2]: 0 (0) Number and (%)
Category of response: Partial [2]: 0 (0) Number and (%)
Category of response: Progression [2]: 14 (87.5) Number and (%)
Category of response: Complete ([2]; listed as estrone): 0 Number and (%)

CCC(=C(c1ccc(O)cc1)c1ccc(OCCN(C)C)cc1)c1ccccc1 [4-hydroxy-Tamoxifen, 1-(4-dimethylaminoethoxyphenyl)-1-(4-hydroxyphenyl)-2-phenyl-but-1-ene]
Function as SERM [1]: found to function as SERMs
Estrogenic activity in breast and endometrial tissues [1]: have some estrogenic activities

Cl.Oc1ccc(-c2sc3cc(O)ccc3c2Oc2ccc(OCCN3CCCCC3)cc2)cc1 [LY 335 563, 6-hydroxy-3-[4-[2-(1-piperidinyl)ethoxy]phenoxyl]-2-(4-hydroxyphenyl) benzo[b]thiopene hydrochloride]
Function as SERM [1]: found to function as SERMs
Estrogenic activity in breast and endometrial tissues [1]: have some estrogenic activities

CC1=C(c2ccc(OC(=O)C(C)(C)C)cc2)[C@H](c2ccc(OCCN3CCCCC3)cc2)Oc2cc(OC(=O)C(C)(C)C)ccc21 [^14C-EM-800]
Radioactivity in the brain lower than in liver ([3]; 2 hours): 412
Radioactivity in the brain lower than in plasma ([3]; 2 hours): 13 times
Radioactivity in the brain lower than in the blood ([3]; 2 hours): 8.4 times
Radioactivity in the brain lower than in the uterus ([3]; 2 hours): 21 times
Drug-derived radioactivity, liver ([3]; 2 hr, 20 mg/kg oral): 7.2547 μg EM-800 equiv/g tissue
Drug-derived radioactivity, uterus ([3]; 2 hr, 20 mg/kg oral): 0.3675 μg EM-800 equiv/g tissue
Drug-derived radioactivity, liver ([3]; 4 hr, 20 mg/kg oral): 3.2201 μg EM-800 equiv/g tissue
Drug-derived radioactivity, uterus ([3]; 4 hr, 20 mg/kg oral): 0.2866 μg EM-800 equiv/g tissue
Drug-derived radioactivity, liver ([3]; 6 hr, 20 mg/kg oral): 2.7462 μg EM-800 equiv/g tissue
Drug-derived radioactivity, uterus ([3]; 6 hr, 20 mg/kg oral): 0.2757 μg EM-800 equiv/g tissue
Drug-derived radioactivity, liver ([3]; 8 hr, 20 mg/kg oral): 2.7748 μg EM-800 equiv/g tissue
Drug-derived radioactivity, uterus ([3]; 8 hr, 20 mg/kg oral): 0.3332 μg EM-800 equiv/g tissue
Drug-derived radioactivity, liver ([3]; 12 hr, 20 mg/kg oral): 1.8232 μg EM-800 equiv/g tissue
Drug-derived radioactivity, uterus ([3]; 12 hr, 20 mg/kg oral): 0.2407 μg EM-800 equiv/g tissue
Drug-derived radioactivity, liver ([3]; 24 hr, 20 mg/kg oral): 0.6391 μg EM-800 equiv/g tissue
Drug-derived radioactivity, uterus ([3]; 24 hr, 20 mg/kg oral): 0.0837 μg EM-800 equiv/g tissue
Drug-derived radioactivity, brain ([3]; 24 hr, 20 mg/kg oral): 0 ng EM-800 equiv/g tissue and 0 μg EM-800 equiv/g tissue
Drug-derived radioactivity, liver ([3]; 36 hr, 20 mg/kg oral): 0.4034 μg EM-800 equiv/g tissue
Drug-derived radioactivity, uterus ([3]; 36 hr, 20 mg/kg oral): 0.0261 μg EM-800 equiv/g tissue
Drug-derived radioactivity, blood ([3]; 36 hr, 20 mg/kg oral): 0 ng EM-800 equiv/g tissue and 0 μg EM-800 equiv/g tissue
Drug-derived radioactivity, brain ([3]; 36 hr, 20 mg/kg oral): 0 ng EM-800 equiv/g tissue and 0 μg EM-800 equiv/g tissue
Drug-derived radioactivity, plasma ([3]; 36 hr, 20 mg/kg oral): 0 ng EM-800 equiv/g tissue and 0 μg EM-800 equiv/g tissue
Drug-derived radioactivity, liver ([3]; 48 hr, 20 mg/kg oral): 0.2196 μg EM-800 equiv/g tissue
Drug-derived radioactivity, uterus ([3]; 48 hr, 20 mg/kg oral): 0.0238 μg EM-800 equiv/g tissue
Drug-derived radioactivity, blood ([3]; 48 hr, 20 mg/kg oral): 0 ng EM-800 equiv/g tissue and 0 μg EM-800 equiv/g tissue
Drug-derived radioactivity, brain ([3]; 48 hr, 20 mg/kg oral): 0 ng EM-800 equiv/g tissue and 0 μg EM-800 equiv/g tissue
Drug-derived radioactivity, plasma ([3]; 48 hr, 20 mg/kg oral): 0 ng EM-800 equiv/g tissue and 0 μg EM-800 equiv/g tissue
Drug-derived radioactivity, liver ([3]; 72 hr, 20 mg/kg oral): 0.1326 μg EM-800 equiv/g tissue
Drug-derived radioactivity, uterus ([3]; 72 hr, 20 mg/kg oral): 0 μg EM-800 equiv/g tissue
Drug-derived radioactivity, blood ([3]; 72 hr, 20 mg/kg oral): 0 ng EM-800 equiv/g tissue and 0 μg EM-800 equiv/g tissue
Drug-derived radioactivity, brain ([3]; 72 hr, 20 mg/kg oral): 0 ng EM-800 equiv/g tissue and 0 μg EM-800 equiv/g tissue
Drug-derived radioactivity, plasma ([3]; 72 hr, 20 mg/kg oral): 0 ng EM-800 equiv/g tissue and 0 μg EM-800 equiv/g tissue
Drug-derived radioactivity, liver ([3]; 96 hr, 20 mg/kg oral): 0.0944 μg EM-800 equiv/g tissue
Drug-derived radioactivity, uterus ([3]; 96 hr, 20 mg/kg oral): 0 μg EM-800 equiv/g tissue
Drug-derived radioactivity, blood ([3]; 96 hr, 20 mg/kg oral): 0 ng EM-800 equiv/g tissue and 0 μg EM-800 equiv/g tissue
Drug-derived radioactivity, brain ([3]; 96 hr, 20 mg/kg oral): 0 ng EM-800 equiv/g tissue and 0 μg EM-800 equiv/g tissue
Drug-derived radioactivity, plasma ([3]; 96 hr, 20 mg/kg oral): 0 ng EM-800 equiv/g tissue and 0 μg EM-800 equiv/g tissue
Drug-derived radioactivity, liver ([3]; 168 hr, 20 mg/kg oral): 0.0348 μg EM-800 equiv/g tissue
Drug-derived radioactivity, uterus ([3]; 168 hr, 20 mg/kg oral): 0 μg EM-800 equiv/g tissue
Drug-derived radioactivity, blood ([3]; 168 hr, 20 mg/kg oral): 0 ng EM-800 equiv/g tissue and 0 μg EM-800 equiv/g tissue
Drug-derived radioactivity, brain ([3]; 168 hr, 20 mg/kg oral): 0 ng EM-800 equiv/g tissue and 0 μg EM-800 equiv/g tissue
Drug-derived radioactivity, plasma ([3]; 168 hr, 20 mg/kg oral): 0 ng EM-800 equiv/g tissue and 0 μg EM-800 equiv/g tissue
Total drug-derived radioactivity in the brain ([3]; female Long-Evans rats, 20 mg/kg oral): not detected after 12 hr post dose

CN(C)CCOc1ccc(/C(=C(/CCCl)c2ccccc2)c2ccc(O)cc2)cc1 [OH-Toremifene, (Z)-(2)-2-[4-(4-chloro-1-(4-hydroxyphenyl)-2-phenyl-1-butenyl)phenoxy]-N,N-dimethyletha namine]
Function as SERM [1]: found to function as SERMs
Estrogenic activity in breast and endometrial tissues [1]: have some estrogenic activities

Cc1c(-c2ccc(O)cc2)n(Cc2ccc(OCCN3CCCCCC3)cc2)c2ccc(O)cc12 [TSE 424]
Function as SERM [1]: found to function as SERMs

CN(C)CCOc1ccc(/C(=C(/CCCl)c2ccccc2)c2ccccc2)cc1 [Toremifene, (Z)-2-[4-(4-Chloro-1,2-diphenyl-1-butenyl)phenoxy]-N,N-dimethylethanamine]
Progressing tumors (ZR-75-1 breast tumors; 50 μg daily + estrone): 89%
Increase of average tumor size over baseline (ZR-75-1 breast tumors; [4]): 86%
Progressing tumors (ZR-75-1 breast tumors; [4]): 21%
Function as SERM [1]: found to function as SERMs
Estrogenic activity in breast and endometrial tissues [1]: have some estrogenic activities

C[C@]12CC[C@@H]3c4ccc(O)cc4C[C@@H](CCCCCCCCC[S+]([O-])CCCC(F)(F)C(F)(F)F)[C@H]3[C@@H]1CC[C@@H]2O (stereo partly shown) [ICI 182,780]
Function as SERM [1]: not to function as a-SERMs
